pIC50, pKi: −log10 of the molar value.
Legend:
[1] = Inhibitory activity against beta-glucosidase in almond; parameters: species or system Prunus dulcis
Beta-galactosidase = target: T1, Beta-galactosidase (Bos taurus, UniProt Q58D55); assay: Inhibitory activity against beta-galactosidase in bovine liver; format: tissue-based
T1 sequence (Q58D55 whole entry): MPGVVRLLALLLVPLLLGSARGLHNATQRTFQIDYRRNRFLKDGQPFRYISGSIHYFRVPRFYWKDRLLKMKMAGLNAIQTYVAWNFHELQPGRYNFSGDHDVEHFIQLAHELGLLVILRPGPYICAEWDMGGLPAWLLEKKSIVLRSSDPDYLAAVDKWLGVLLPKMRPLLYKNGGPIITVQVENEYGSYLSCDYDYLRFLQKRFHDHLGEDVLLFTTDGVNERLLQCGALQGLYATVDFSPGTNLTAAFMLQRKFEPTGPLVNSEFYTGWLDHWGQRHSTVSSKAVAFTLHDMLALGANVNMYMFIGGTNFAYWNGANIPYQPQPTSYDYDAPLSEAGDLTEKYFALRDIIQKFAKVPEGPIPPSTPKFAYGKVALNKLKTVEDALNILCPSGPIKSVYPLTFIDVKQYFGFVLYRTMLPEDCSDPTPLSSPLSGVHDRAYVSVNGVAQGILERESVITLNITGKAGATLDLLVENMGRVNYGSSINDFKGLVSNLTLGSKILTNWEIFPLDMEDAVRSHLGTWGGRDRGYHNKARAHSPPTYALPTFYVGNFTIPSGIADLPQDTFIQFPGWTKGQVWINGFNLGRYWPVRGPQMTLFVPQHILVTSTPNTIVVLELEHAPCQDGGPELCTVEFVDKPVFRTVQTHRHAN

[2] = Inhibitory activity against beta-glucosidase in almond at pH 5.5; parameters: species or system Prunus dulcis
[3] = Inhibitory activity against beta-glucosidase in almond at pH 6.8; parameters: species or system Prunus dulcis

Row | SMILES | pIC50 [1] | pIC50 (Beta-galactosidase) | pKi [1] | pKi (Beta-galactosidase) | pKi [2] | pKi [3]
1 | CCCCCCNC1CC(C)C(O)C(O)C1O (stereo not drawn) | 6.14 | 5.43 |  |  |  | 
2 | CCCCCCCCCCN[C@H]1CC(C)[C@@H](O)C(O)[C@@H]1O (stereo partly drawn) | 4.78 | 6.00 |  |  |  | 
3 | CCCCCCCCCCNC1CC(C)C(O)C(O)C1O (stereo not drawn) | 5.70 | 6.70 | 6.40 | 8.05 |  | 
4 | CCCCCCCCN[C@H]1CC(C)[C@@H](O)C(O)[C@@H]1O (stereo partly drawn) | 4.83 | 5.43 |  |  |  | 
5 | CCCCCCCCNC1CC(C)C(O)C(O)C1O (stereo not drawn) | 5.82 | 6.15 | 5.49 | 6.96 |  | 
6 | CC1C[C@H](NCCCCc2ccccc2)[C@@H](O)C(O)[C@@H]1O (stereo partly drawn) | 4.99 | 5.62 |  |  |  | 
7 | CC1CC(NCCCCc2ccccc2)C(O)C(O)C1O (stereo not drawn) | 5.85 | 6.05 | 5.92 | 7.34 |  | 
8 | CCCCCCCCCCCCN[C@H]1CC(C)[C@@H](O)C(O)[C@@H]1O (stereo partly drawn) | 5.44 | 5.52 |  |  |  | 
9 | C[C@@H]1CC(NCCc2ccccc2)[C@@H](O)[C@@H](O)[C@@H]1O (stereo in doubt) | 6.42 | 5.24 | 7.24 |  | 6.41 | 7.24
10 | C[C@@H]1CC(NCCc2ccccc2)[C@@H](O)[C@@H](O)[C@@H]1O (stereo in doubt; 9e (D)) |  |  |  |  |  | 6.96
